Test results taken from US10376520B2, “Methods for the treatment of cardiovascular disorders” (Galapagos NV, priority 2015, dated 2019).

System: RA patients
Assay: [HDL] determination, Study 1 (RA patients, add-on to MTX)
Format: in vivo, human
Procedure: Double-blind, placebo-controlled add on study in subjects with moderately to severely active RA who have an inadequate response to methotrexate (MTX) (oral or parenteral).
595 subjects randomized to one of 6 dose regimens of Compound 1 (dosed as a [Compound 1:HCl:3H2O]) (3 dose levels administered either once or twice daily) or placebo on top of each subject's stable dose of MTX.
Compound 1 (dosed as a [Compound 1:HCl:3H2O]) is dosed for twelve weeks once daily (q.d.) (50 mg, 100 mg or 200 mg) or twice daily (b.i.d.) (25 mg, 50 mg or 100 mg); or placebo.
At Week 12, the subjects on placebo who have not achieved 20% improvement in swollen joint count (SJC66) and tender joint count (TJC68) are re-randomized automatically to receive Compound 1 (dosed as a [Compound 1:HCl:3H2O]) either at 100 mg q.d. or 50 mg b.i.d. doses in a blinded fashion; subjects on 50 mg q.d. who have not achieved 20% improvement in SJC66 and TJC68 will be assigned to 100 mg q.d. and subjects on 25 mg b.i.d. that have not achieved a 20% improvement in SJC66 and TJC68 will be assigned to 50 mg b.i.d. Subjects who switch treatment at week 12 are handled as if they discontinued at week 12 for the purpose of statistical analysis, whereas subjects in the other groups will maintain their randomized treatment until Week 24.
This assay relies on a homogeneous enzymatic colorimetric test. In the presence of magnesium ions, dextran sulfate selectively forms water-soluble complexes with LDL, VLDL and chylomicrons which are resistant to PEG-modified enzymes.
The cholesterol concentration of [HDL]-cholesterol is determined enzymatically by cholesterol esterase and cholesterol oxidase coupled with PEG to the amino groups (approx. 40%).
In the presence of peroxidase, the hydrogen peroxide generated reacts with 4-amino-antipyrine and Sodium N-(2-hydroxy-3-sulfopropyl)-3,5-dimethoxyaniline (HSDA) to form a purple-blue dye. The color intensity of this dye is directly proportional to the cholesterol concentration and is measured photometrically.
Human serum and plasma samples [HDL] determination was done on a Roche/Hitachi Cobas c 701/702 system which automatically calculate the analyte concentration of each sample. Samples containing precipitates are centrifuged before performing the assay.

[1] = 2 x 50 mg b.i.d. (N = 85), week 12
[2] = 2 x 100 mg b.i.d. (N = 84), week 1
[3] = 2 x 100 mg b.i.d. (N = 84), week 2
[4] = 2 x 100 mg b.i.d. (N = 84), week 4
[5] = 2 x 100 mg b.i.d. (N = 84), week 8
[6] = 2 x 100 mg b.i.d. (N = 84), week 12
[7] = continued 25 mg b.i.d (N = 69), week 1
[8] = continued 25 mg b.i.d (N = 69), week 2
[9] = continued 25 mg b.i.d (N = 69), week 4
[10] = continued 25 mg b.i.d (N = 69), week 8
[11] = continued 25 mg b.i.d (N = 69), week 12
[12] = continued 25 mg b.i.d (N = 69), week 16
[13] = continued 25 mg b.i.d (N = 69), week 20
[14] = continued 25 mg b.i.d (N = 69), week 24
[15] = continued 50 mg b.i.d. (N = 85), week 1
[16] = continued 50 mg b.i.d. (N = 85), week 2
[17] = continued 50 mg b.i.d. (N = 85), week 4
[18] = continued 50 mg b.i.d. (N = 85), week 8
[19] = continued 50 mg b.i.d. (N = 85), week 12
[20] = continued 50 mg b.i.d. (N = 85), week 16
[21] = continued 50 mg b.i.d. (N = 85), week 20
[22] = continued 50 mg b.i.d. (N = 85), week 24
[23] = continued 50 mg q.d. (N = 63), week 1
[24] = continued 50 mg q.d. (N = 63), week 2

## O=C(Nc1nc2cccc(-c3ccc(CN4CCS(=O)(=O)CC4)cc3)n2n1)C1CC1 [Compound 1, cyclopropanecarboxylic acid {5-[4-(1,1-dioxo-thiomorpholin-4-ylmethyl)-phenyl]-[1,2,4]triazolo[1,5-a]pyridin-2yl}-amide]
[1]
  [HDL] Mean CFB - 12 weeks results: 0.10 mmol/L
  [HDL] Mean percentage CFB - 12 weeks results: 9%
  [HDL] Median CFB - 12 weeks results: 0.10 mmol/L
[2]
  [HDL] Mean CFB - 12 weeks results: 0.12 mmol/L
  [HDL] Mean percentage CFB - 12 weeks results: 9%
  [HDL] Median CFB - 12 weeks results: 0.10 mmol/L
[3]
  [HDL] Mean CFB - 12 weeks results: 0.20 mmol/L
  [HDL] Mean percentage CFB - 12 weeks results: 15%
  [HDL] Median CFB - 12 weeks results: 0.18 mmol/L
[4]
  [HDL] Mean CFB - 12 weeks results: 0.25 mmol/L
  [HDL] Mean percentage CFB - 12 weeks results: 20%
  [HDL] Median CFB - 12 weeks results: 0.25 mmol/L
[5]
  [HDL] Mean CFB - 12 weeks results: 0.26 mmol/L
  [HDL] Mean percentage CFB - 12 weeks results: 21%
  [HDL] Median CFB - 12 weeks results: 0.25 mmol/L
[6]
  [HDL] Mean CFB - 12 weeks results: 0.30 mmol/L
  [HDL] Mean percentage CFB - 12 weeks results: 23%
  [HDL] Median CFB - 12 weeks results: 0.25 mmol/L
[7]
  [HDL] Mean CFB - 24 weeks results: 0.01 mmol/L
  [HDL] Mean percentage CFB - 24 weeks results: 0.74%
  [HDL] Median CFB - 24 weeks results: 0.00 mmol/L
[8]
  [HDL] Mean CFB - 24 weeks results: 0.05 mmol/L
  [HDL] Mean percentage CFB - 24 weeks results: 3.77%
  [HDL] Median CFB - 24 weeks results: 0.05 mmol/L
[9]
  [HDL] Mean CFB - 24 weeks results: 0.07 mmol/L
  [HDL] Mean percentage CFB - 24 weeks results: 5.04%
  [HDL] Median CFB - 24 weeks results: 0.08 mmol/L
[10]
  [HDL] Mean CFB - 24 weeks results: 0.08 mmol/L
  [HDL] Mean percentage CFB - 24 weeks results: 6.08%
  [HDL] Median CFB - 24 weeks results: 0.10 mmol/L
[11]
  [HDL] Mean CFB - 24 weeks results: 0.07 mmol/L
  [HDL] Mean percentage CFB - 24 weeks results: 5.78%
  [HDL] Median CFB - 24 weeks results: 0.05 mmol/L
[12]
  [HDL] Mean CFB - 24 weeks results: 0.08 mmol/L
  [HDL] Mean percentage CFB - 24 weeks results: 6.74%
  [HDL] Median CFB - 24 weeks results: 0.05 mmol/L
[13]
  [HDL] Mean CFB - 24 weeks results: 0.05 mmol/L
  [HDL] Mean percentage CFB - 24 weeks results: 5.08%
  [HDL] Median CFB - 24 weeks results: 0.07 mmol/L
[14]
  [HDL] Mean CFB - 24 weeks results: 0.08 mmol/L
  [HDL] Mean percentage CFB - 24 weeks results: 6.59%
  [HDL] Median CFB - 24 weeks results: 0.09 mmol/L
[15]
  [HDL] Mean CFB - 24 weeks results: 0.03 mmol/L
  [HDL] Mean percentage CFB - 24 weeks results: 4.29%
  [HDL] Median CFB - 24 weeks results: 0.05 mmol/L
[16]
  [HDL] Mean CFB - 24 weeks results: 0.12 mmol/L
  [HDL] Mean percentage CFB - 24 weeks results: 9.99%
  [HDL] Median CFB - 24 weeks results: 0.10 mmol/L
[17]
  [HDL] Mean CFB - 24 weeks results: 0.13 mmol/L
  [HDL] Mean percentage CFB - 24 weeks results: 11.50%
  [HDL] Median CFB - 24 weeks results: 0.13 mmol/L
[18]
  [HDL] Mean CFB - 24 weeks results: 0.13 mmol/L
  [HDL] Mean percentage CFB - 24 weeks results: 11.21%
  [HDL] Median CFB - 24 weeks results: 0.14 mmol/L
[19]
  [HDL] Mean CFB - 24 weeks results: 0.10 mmol/L
  [HDL] Mean percentage CFB - 24 weeks results: 9.27%
  [HDL] Median CFB - 24 weeks results: 0.10 mmol/L
[20]
  [HDL] Mean CFB - 24 weeks results: 0.13 mmol/L
  [HDL] Mean percentage CFB - 24 weeks results: 11.13%
  [HDL] Median CFB - 24 weeks results: 0.15 mmol/L
[21]
  [HDL] Mean CFB - 24 weeks results: 0.15 mmol/L
  [HDL] Mean percentage CFB - 24 weeks results: 12.24%
  [HDL] Median CFB - 24 weeks results: 0.16 mmol/L
[22]
  [HDL] Mean CFB - 24 weeks results: 0.11 mmol/L
  [HDL] Mean percentage CFB - 24 weeks results: 10.05%
  [HDL] Median CFB - 24 weeks results: 0.12 mmol/L
[23]
  [HDL] Mean CFB - 24 weeks results: 0.02 mmol/L
  [HDL] Mean percentage CFB - 24 weeks results: 1.75%
  [HDL] Median CFB - 24 weeks results: 0.01 mmol/L
[24]
  [HDL] Mean CFB - 24 weeks results: 0.07 mmol/L
  [HDL] Mean percentage CFB - 24 weeks results: 4.74%
  [HDL] Median CFB - 24 weeks results: 0.08 mmol/L
Continued 50 mg q.d. (N = 63), week 4
  [HDL] Mean CFB - 24 weeks results: 0.06 mmol/L
